Here are results for five compounds from patent US4343949A, “Novel 2-substituted-3,4-epoxycyclopentan-1-ones, 2-substituted-3,4-epoxycyclopentan-1-ols, and various 2-substituted-cyclopentenones” (American Cyanamid Company, priority 1979, dated 1982).

Experiment [1] deals with ulcerogenic properties of indomethacin. The experiment can be described thus: protection against the ulcerogenic properties of indomethacin (stomach ulcer score). In kind it is in vivo, Rats. The note with it: indomethacin 20 mg./kg. s.c., 2.5 or lower = active. The protocol: The compounds of this invention provide protection against the ulcerogenic properties of indomethacin. This assay was carried out in the following manner.
Rats were starved for 48 hours (water was given ad libitum). Indomethacin (20 mg./kg. of body weight) was administered by the subutaneous route and one-half the dose of the test compound was administered by gavage at the same time. After three hours, the second half of the test compound was administered also by Gavage. Five hours after the administration of indomethacin the animals were decapitated and the stomachs removed. The stomachs were washed with distilled water, blotted on gauze, cut along the larger curvature, and the contents rinsed with distilled water. The stomachs were spread out, pinned on a cork and visualized under magnifying glass for ulcers. The criteria for scoring of ulcers was as previously reported. [Abdel-Galil et al. Brit. J. Pharmac. Chemotherapy 33:1-14 (1968)]. […]
______________________________________
Petechial hemorrhage or pin point ulcer
Many ulcers, a few large
Many ulcers, mainly large
Control animals treated with indomethacin but not test compound consistently give scores of about 3.0-3.5. Control animals treated with neither indomethacin nor test compound give scores of about 0.5-0.8. Compounds producing a score of 2.5 or lower are considered to be active.

The subject of experiment [2] is bronchospasms elicited by acetylcholine. The experiment can be described thus: bronchodilator activity (Konzett assay) against acetylcholine bronchospasm. In kind it is in vivo, guinea pigs. The note with it: Cavia porcellus; spasmogenic agent acetylcholine (head prints choline); three logarithmic cumulative intravenous doses. The protocol: (§1) Bronchodilator activity was determined in guinea pigs against bronchospasms elicited by intravenous injections of 5-hydroxytryptamine, histamine or acetylcholine by the Konzett procedure. (See J. Lulling, P. Lievens, F. El Sayed and J. Prignot, Arzeimittel-Porschung, 18 995 (1968).]
(§2) In the Table which follows bronchodilator activity for representative compounds of this invention against one or more of the three spasmogenic agents is expressed as an ED50 determined from the results obtained with three logarithemic cumulative intravenous doses.

The subject of experiment [3] is bronchospasms elicited by 5-hydroxytryptamine. Briefly: bronchodilator activity (Konzett assay) against 5-hydroxytryptamine bronchospasm. In kind it is in vivo, guinea pigs. The note with it: Cavia porcellus; spasmogenic agent 5-hydroxytryptamine; three logarithmic cumulative intravenous doses. The protocol: as §1, §2
For experiment [4], the system named is bronchospasms elicited by histamine. Briefly: bronchodilator activity (Konzett assay) against histamine bronchospasm. The class given is in vivo, guinea pigs. The following applies: Cavia porcellus; spasmogenic agent histamine; three logarithmic cumulative intravenous doses. As to the method: as §1, §2
Where [5] appears, read: total oral dose 25 mg./kg. of body weight, control score 3.2.

For the compound `CCCCCC(O)/C=C/C1CCC(=O)C1CCCCSCC(=O)O` (stereo not drawn) [9-oxo-3-thia-15-hydroxy-13-trans-prostenoic acid], the “Score, Treated (stomach ulcer score)” value in experiment [1] (setting [5]) is reported as 1.8.
For the compound `CCCCCC(O)/C=C/C1CCC(=O)C1(C)CCCCCCC(=O)O` (stereo not drawn) [9-oxo-8β-methyl-15-hydroxy-13-trans-prostenoic acid], the “Score, Treated (stomach ulcer score)” value in experiment [1] (total oral dose 12.5 mg./kg. of body weight, control score 3.0) is 2.0.
One may read the ED50 as the dose at which the effect has come halfway, by size or by number of responders. As for `CCCCCC(O)/C=C/C1CCC(=O)C1CCCCCC(CC)C(=O)O` (stereo not drawn) [9-oxo-15-hydroxy-2-ethyl-13-trans-prostenoic acid], the median effective dose (ED50) in experiment [2] turned out to be 0.533 µg/kg; in experiment [3], 0.329 µg/kg; in experiment [4], 0.145 µg/kg.
Take `CCCCCC(O)/C=C\C1CCC(=O)C1CCCCCCC(=O)O` (stereo not drawn) [9-oxo-15-hydroxy-13-cis-prostenoic acid]: the ED50 in experiment [2] stood at 0.32 µg/kg; in experiment [3] it was 0.106 µg/kg.
Turning to `CCCCCC(O)/C=C/C1CCC(=O)C1CCCCSCC(=O)O` (stereo not drawn) [9-oxo-3-thia-15-epi-hydroxy-13-trans-prostenoic acid], in experiment [1] (setting [5]), the “Score, Treated (stomach ulcer score)” value worked out at 2.3.
